For one experiment, the system named is VREf isolates. Nature of the experiment: microbe, parasite or virus in culture. The procedure:
(§1) Initial organism identification and susceptibility determination were performed via MALDI-TOF MS (Bruker Daltonics, Billerica, MA, USA) and MicroScan Walkaway (Beckman Coulter, Brea, CA), respectively, in the clinical microbiology laboratory. Pure colonies of the VREf isolates cultured from the CSF on hospital days 33 and 57 and from blood on days 35 and 52 were sub-cultured to BD BBL chocolate II agar slants (Becton, Dickinson and Company, Sparks, MD, USA) and shipped immediately overnight to the research laboratory where all subsequent testing was performed. Identification and resistance marker detection was confirmed via the Verigene Gram-positive blood culture assay (Luminex, Northbrook, IL, USA).
Minimum inhibitory concentrations were determined in triplicate according to CLSI guidelines. Modal MIC values are reported.

The next experiment has as its system VREf. Kind of experiment: microbe, parasite or virus in culture. The format is cell-based, Enterococcus faecium. As to the method:
as §1

The mark [1] stands for this setting: Enterococcus faecium, VREf isolate from CSF, hospital day 33, modal MIC of triplicate, CLSI guidelines.
The mark [2] stands for this setting: Enterococcus faecium, VREf isolate from CSF, hospital day 57, modal MIC of triplicate, CLSI guidelines.
Setting [3] is: Enterococcus faecium, VREf isolate from blood, hospital day 35, modal MIC of triplicate, CLSI guidelines.
Setting [4] is: Enterococcus faecium, VREf isolate from blood, hospital day 52, modal MIC of triplicate, CLSI guidelines.
The mark [5] stands for this setting: VREf isolate from CSF, hospital day 33, CLSI M100-S30 unless footnoted (b: CLSI vancomycin-susceptible E. faecalis; c: FDA E. faecalis; d: EUCAST v.10.0 E. faecium).
[6] abbreviates: VREf isolate from CSF, hospital day 57, CLSI M100-S30 unless footnoted.
[7] abbreviates: VREf isolate from blood, hospital day 35, CLSI M100-S30 unless footnoted.
The mark [8] stands for this setting: VREf isolate from blood, hospital day 52, CLSI M100-S30 unless footnoted.
The mark [9] stands for this setting: VREf isolate from CSF, hospital day 33, modal MIC of triplicate, CLSI guidelines.
The mark [10] stands for this setting: VREf isolate from CSF, hospital day 57, modal MIC of triplicate, CLSI guidelines.
[11] abbreviates: VREf isolate from blood, hospital day 35, modal MIC of triplicate, CLSI guidelines.
Where [12] appears, read: VREf isolate from blood, hospital day 52, modal MIC of triplicate, CLSI guidelines.

Read-outs that look alike come from different tables or passages of the source. A value given as a limit tells only on which side of the number the result lay.

Turning to `CCO/N=C(\C(=O)N[C@@H]1C(=O)N2C(C(=O)[O-])=C(Sc3nc(-c4cc[n+](C)cc4)cs3)CS[C@H]12)c1nsc(N)n1` [Ceftaroline], the MIC in the experiment on VREf isolates (setting [1]), in the experiment on VREf isolates (setting [2]), in the experiment with VREf isolates (setting [3]) and in the experiment on VREf isolates (setting [4]) was not below 128 µg/mL throughout.

Take `CC[C@H]1OC(=O)[C@H](C)[C@@H](O[C@H]2C[C@@](C)(OC)[C@@H](O)[C@H](C)O2)[C@H](C)[C@@H](O[C@@H]2O[C@H](C)C[C@H](N(C)C)[C@H]2O)[C@](C)(O)C[C@@H](C)C(=O)[C@H](C)[C@@H](O)[C@]1(C)O` [Erythromycin]: the MIC with VREf isolates (setting [1]), in the experiment on VREf isolates (setting [2]), with VREf isolates (setting [3]) and in the experiment with VREf isolates (setting [4]) was not below 8 µg/mL each time. In addition, the “Interpretive Category” value in the experiment on VREf isolates (setting [5]), with VREf isolates (setting [6]), in the experiment on VREf isolates (setting [7]) and with VREf isolates (setting [8]) was “R” throughout.

For `CO/N=C(\C(=O)N[C@@H]1C(=O)N2C(C(=O)O)=C(CSc3nc(=O)c(=O)[nH]n3C)CS[C@H]12)c1csc(N)n1` [Ceftriaxone], the MIC in the experiment on VREf isolates (setting [1]), in the experiment on VREf isolates (setting [2]), in the experiment on VREf isolates (setting [3]) and in the experiment on VREf isolates (setting [4]) was not below 128 µg/mL each time.

For `CO[C@H]1/C=C/O[C@@]2(C)Oc3c(C)c(O)c4c(O)c(c(/C=N/N5CCN(C)CC5)c(O)c4c3C2=O)NC(=O)/C(C)=C\C=C\[C@H](C)[C@H](O)[C@@H](C)[C@@H](O)[C@@H](C)[C@H](OC(C)=O)[C@@H]1C` [Rifampin], the MIC with VREf isolates (setting [1]), with VREf isolates (setting [2]), in the experiment with VREf isolates (setting [3]) and with VREf isolates (setting [4]) was not below 4 µg/mL each time. In addition, the “Interpretive Category” value in the experiment with VREf isolates (setting [5]), in the experiment on VREf isolates (setting [6]), in the experiment on VREf isolates (setting [7]) and in the experiment with VREf isolates (setting [8]) was “R” each time.

Regarding `C=C[C@]1(C)C[C@@H](OC(=O)CS[C@@H]2CC[C@@H](N)C[C@H]2O)[C@]2(C)[C@H](C)CC[C@]3(CCC(=O)[C@H]32)[C@@H](C)[C@@H]1O` [Lefamulin], the MIC was 1 µg/mL with VREf isolates (setting [1]), 2 µg/mL in the experiment with VREf isolates (setting [2]), 1 µg/mL with VREf isolates (setting [3]) and 2 µg/mL in the experiment with VREf isolates (setting [4]).

Regarding `C[C@@H]1O[C@@H]1P(=O)(O)O` [Fosfomycin], the MIC in the experiment on VREf isolates (setting [1]), with VREf isolates (setting [2]), in the experiment on VREf isolates (setting [3]) and in the experiment with VREf isolates (setting [4]) was 64 µg/mL each time. The “Interpretive Category” value in the experiment on VREf isolates (setting [5]), in the experiment with VREf isolates (setting [6]), in the experiment with VREf isolates (setting [7]) and in the experiment on VREf isolates (setting [8]) was “S” each time.

Consider `Nc1nc(-n2cc(C(=O)O)c(=O)c3cc(F)c(N4CC(O)C4)c(Cl)c32)c(F)cc1F` [Delafloxacin], for which the MIC with VREf isolates (setting [1]), in the experiment on VREf isolates (setting [2]), with VREf isolates (setting [3]) and with VREf isolates (setting [4]) was more than 8 µg/mL throughout. Also, the “Interpretive Category” value in the experiment with VREf isolates (setting [5]), in the experiment with VREf isolates (setting [6]), in the experiment with VREf isolates (setting [7]) and in the experiment on VREf isolates (setting [8]) was “R” each time.

Regarding `CCCCCCCCCCNCCN[C@@]1(C)C[C@H](O[C@H]2[C@H](Oc3c4cc5cc3Oc3ccc(cc3Cl)[C@@H](O)[C@@H](NC(=O)[C@@H](CC(C)C)NC)C(=O)N[C@@H](CC(N)=O)C(=O)N[C@H]5C(=O)N[C@H]3C(=O)N[C@H](C(=O)N[C@H](C(=O)O)c5cc(O)c(CNCP(=O)(O)O)c(O)c5-c5cc3ccc5O)[C@H](O)c3ccc(c(Cl)c3)O4)O[C@H](CO)[C@@H](O)[C@@H]2O)O[C@@H](C)[C@H]1O` [Telavancin], the MIC in the experiment on VREf isolates (setting [9]), with VREf isolates (setting [10]), with VREf isolates (setting [11]) and with VREf isolates (setting [12]) was not below 4 µg/mL each time.

As to `CC1(C)S[C@@H]2[C@H](NC(=O)[C@H](N)c3ccccc3)C(=O)N2[C@H]1C(=O)O` [Ampicillin], the MIC with VREf isolates (setting [1]), in the experiment on VREf isolates (setting [2]), in the experiment with VREf isolates (setting [3]) and in the experiment on VREf isolates (setting [4]) was not below 16 µg/mL throughout. Moreover, the “Interpretive Category” value with VREf isolates (setting [5]), in the experiment with VREf isolates (setting [6]), with VREf isolates (setting [7]) and with VREf isolates (setting [8]) was “R” in each case.

Consider `O=C1CN(/N=C/c2ccc([N+](=O)[O-])o2)C(=O)N1` [Nitrofurantoin], for which the MIC in the experiment with VREf isolates (setting [1]), in the experiment with VREf isolates (setting [2]), with VREf isolates (setting [3]) and in the experiment with VREf isolates (setting [4]) was not below 128 µg/mL in each case. For the same molecule, the “Interpretive Category” value in the experiment with VREf isolates (setting [5]), in the experiment on VREf isolates (setting [6]), with VREf isolates (setting [7]) and with VREf isolates (setting [8]) was “R” throughout.

`CCCCCCCCCC(=O)N[C@@H](Cc1c[nH]c2ccccc12)C(=O)N[C@H](CC(N)=O)C(=O)N[C@@H](CC(=O)O)C(=O)N[C@@H]1C(=O)NCC(=O)N[C@@H](CCCN)C(=O)N[C@@H](CC(=O)O)C(=O)N[C@H](C)C(=O)N[C@@H](CC(=O)O)C(=O)NCC(=O)N[C@H](CO)C(=O)N[C@@H]([C@H](C)CC(=O)O)C(=O)N[C@@H](CC(=O)c2ccccc2N)C(=O)O[C@@H]1C` [Daptomycin]: the MIC in the experiment with VREf isolates is not below 8 µg/mL. In addition, the “Interpretive Category” value in the experiment with VREf isolates (setting [5]), with VREf isolates (setting [6]), with VREf isolates (setting [7]) and in the experiment on VREf isolates (setting [8]) was “R” each time. Also, the “local laboratory susceptibility result” value with VREf (VREf blood isolate of hospital day 22) is given as “resistance”. The susceptibility category result was “resistant” with VREf (VREf blood isolate returning after 11 days of daptomycin therapy) and “susceptible dose-dependent” in the experiment on VREf (first episode of VREf bacteremia, 2.5 months before admission).

As to `CN(C)c1cc(CNCC(C)(C)C)c(O)c2c1C[C@H]1C[C@H]3[C@H](N(C)C)C(O)=C(C(N)=O)C(=O)[C@@]3(O)C(O)=C1C2=O` [Omadacycline], the MIC in the experiment with VREf isolates (setting [1]), in the experiment with VREf isolates (setting [2]), in the experiment with VREf isolates (setting [3]) and in the experiment with VREf isolates (setting [4]) was 1 µg/mL in each case. The “Interpretive Category” value with VREf isolates (setting [5]), in the experiment with VREf isolates (setting [6]), with VREf isolates (setting [7]) and in the experiment on VREf isolates (setting [8]) was “R” each time.

With `CN(C)[C@@H]1C(O)=C(C(N)=O)C(=O)[C@@]2(O)C(O)=C3C(=O)c4c(O)cccc4[C@@](C)(O)[C@H]3C[C@@H]12` [Tetracycline], the “Interpretive Category” value in the experiment on VREf isolates (setting [5]), in the experiment with VREf isolates (setting [6]), in the experiment with VREf isolates (setting [7]) and in the experiment with VREf isolates (setting [8]) was “R” each time.

In the case of `C[C@H]1COc2c(N3CCN(C)CC3)c(F)cc3c(=O)c(C(=O)O)cn1c23` [Levofloxacin], the MIC in the experiment with VREf isolates (setting [1]), with VREf isolates (setting [2]), in the experiment with VREf isolates (setting [3]) and with VREf isolates (setting [4]) was not below 8 µg/mL each time. Also, the “Interpretive Category” value with VREf isolates (setting [5]), in the experiment on VREf isolates (setting [6]), in the experiment on VREf isolates (setting [7]) and in the experiment with VREf isolates (setting [8]) was “R” in each case.

With `CN[C@H]1C(=O)N[C@@H]2Cc3ccc(cc3)Oc3cc4cc(c3O[C@@H]3O[C@H](C(=O)O)[C@@H](O)[C@H](O)[C@H]3NC(=O)CCCCCCCCC(C)C)Oc3ccc(cc3Cl)[C@@H](O)[C@@H]3NC(=O)[C@H](NC(=O)[C@@H]4NC(=O)[C@@H](NC2=O)c2cc(cc(O)c2Cl)Oc2cc1ccc2O)c1ccc(O)c(c1)-c1c(O[C@H]2O[C@H](CO)[C@@H](O)[C@H](O)[C@@H]2O)cc(O)cc1[C@@H](C(=O)NCCCN(C)C)NC3=O` [Dalbavancin], the MIC with VREf isolates is not below 4 µg/mL.

In the case of `O=C(N[C@H](CO)[C@H](O)c1ccc([N+](=O)[O-])cc1)C(Cl)Cl` [Chloramphenicol], the MIC with VREf isolates (setting [1]), in the experiment on VREf isolates (setting [2]), with VREf isolates (setting [3]) and with VREf isolates (setting [4]) was not below 32 µg/mL each time. Besides, the “Interpretive Category” value in the experiment on VREf isolates (setting [5]), in the experiment with VREf isolates (setting [6]), in the experiment with VREf isolates (setting [7]) and with VREf isolates (setting [8]) was “R” in each case.

With `CNC(C)C1CCC(N)C(OC2C(N)CC(N)C(OC3OCC(C)(O)C(NC)C3O)C2O)O1` (stereo not drawn) [Gentamicin], the MIC in the experiment with VREf isolates (setting [1]), with VREf isolates (setting [2]), in the experiment on VREf isolates (setting [3]) and with VREf isolates (setting [4]) was not above 500 µg/mL throughout. In addition, the “Interpretive Category” value in the experiment on VREf isolates (setting [5]), in the experiment with VREf isolates (setting [6]), in the experiment on VREf isolates (setting [7]) and with VREf isolates (setting [8]) was “S” throughout.

Turning to `CN[C@H](CC(C)C)C(=O)N[C@H]1C(=O)N[C@@H](CC(N)=O)C(=O)N[C@H]2C(=O)N[C@H]3C(=O)N[C@H](C(=O)N[C@H](C(=O)O)c4cc(O)cc(O)c4-c4cc3ccc4O)[C@H](O)c3ccc(c(Cl)c3)Oc3cc2cc(c3O[C@@H]2O[C@H](CO)[C@@H](O)[C@H](O)[C@H]2O[C@H]2C[C@](C)(N)[C@H](O)[C@H](C)O2)Oc2ccc(cc2Cl)[C@H]1O` [Vancomycin], the “Interpretive Category” value in the experiment on VREf isolates (setting [5]), with VREf isolates (setting [6]), in the experiment on VREf isolates (setting [7]) and in the experiment on VREf isolates (setting [8]) was “R” throughout. Further, the MIC in the experiment with VREf isolates (setting [9]), in the experiment on VREf isolates (setting [10]), in the experiment on VREf isolates (setting [11]) and in the experiment with VREf isolates (setting [12]) was not below 256 µg/mL in each case.

Source of the values: publication PMC8482274, “Inadequate Cerebrospinal Fluid Concentrations of Available Salvage Agents Further Impedes the Optimal Treatment of Multidrug-Resistant Enterococcus faecium Meningitis and Bacteremia” (Infectious Disease Reports, 2021).
